Results taken from patent US7973056B2, “Triazole derivative or salt thereof” (Fujifilm Finechemicals Co., Ltd, priority 2008, dated 2011).
≈ marks a conversion by molar mass, not a printed value.

Columns and labels:
Assay in all cases: Antifungal activity test (in vitro), MIC
Assay type in all cases: cell-based
[1] = tested on: Trichophyton mentagrophytes ATCC 9533; details: ATCC9533
Description: (§1) Minimum inhibitory concentration (MIC) of each of the compounds obtained in Examples 1 to 12 was measured for respective fungi at MOS Pharm Service, by the methods described in Antimicrobial Agents and Chemotherapy, vol. 3, pp. 40-48 (1973), Antimicrobial Agents and Chemotherapy, vol. 33, pp. 215-222 (1989) and Antimicrobial Agents and Chemotherapy, vol. 38, pp. 2362-2368 (1994). The measuring conditions are shown in the following. In this case, Voriconazol was used as a comparative compound. Trichophyton mentagrophytes ATCC 9533; Cultured at 28° C. for 3 days using fluid Sabouraud medium, and this was used as a cell suspension. Each of the compounds of the invention was adjusted to a concentration of 1% by weight using dimethyl sulfoxide (DMSO) and a medium similar to the respective medium used in the above-mentioned fungal culture, having a final concentration of from 0.001 to 100 μg/ml, was prepared. Each of the inoculation cell suspensions prepared by the above-mentioned methods was inoculated onto this agar plate. […] In this connection, Voriconazol was used as the comparative compound C-1.

[2] = tested on: Aspergillus fumigatus ATCC 1028; details: ATCC1028
Description: Minimum inhibitory concentration (MIC) of each of the compounds obtained in Examples 1 to 12 was measured for respective fungi at MOS Pharm Service, by the methods described in Antimicrobial Agents and Chemotherapy, vol. 3, pp. 40-48 (1973), Antimicrobial Agents and Chemotherapy, vol. 33, pp. 215-222 (1989) and Antimicrobial Agents and Chemotherapy, vol. 38, pp. 2362-2368 (1994). The measuring conditions are shown in the following. In this case, Voriconazol was used as a comparative compound.
Aspergillus fumigatus ATCC 1028; Cultured at 28° C. for 2 days using potato dextrose broth, and this was used as a cell suspension.
Each of the compounds of the invention was adjusted to a concentration of 1% by weight using dimethyl sulfoxide (DMSO) and a medium similar to the respective medium used in the above-mentioned fungal culture, having a final concentration of from 0.001 to 100 μg/ml, was prepared. Each of the inoculation cell suspensions prepared by the above-mentioned methods was inoculated onto this agar plate. […] In this connection, Voriconazol was used as the comparative compound C-1.

[3] = tested on: Cryptococcus neoformans ATCC 24067; details: ATCC24067
Description: as §1, with “Cryptococcus neoformans” for “Trichophyton mentagrophytes”, “24067, Pityrosporum ovale ATCC 38593;” for “9533;”, “37°” for “28°”, “2 day” for “3 days”

[4] = tested on: Pityrosporum ovale ATCC 38593; details: Malassezia furfur, ATCC38593
Description: as §1, with “Cryptococcus neoformans” for “Trichophyton mentagrophytes”, “24067, Pityrosporum ovale ATCC 38593;” for “9533;”, “37°” for “28°”, “2 day” for “3 days”

[5] = tested on: Candida albicans ATCC 44858; details: ATCC44858
[6] = tested on: Trichophyton rubrum ATCC 10218; details: ATCC10218
Description: as §1, with “rubrum” for “mentagrophytes”, “10218;” for “9533;”

Compound	MIC [1]	MIC [2]	MIC [3]	MIC [4]	MIC [5]	MIC [6]
C[C@@H](N1CCC(c2ccccn2)CC1)[C@](O)(Cn1cncn1)c1ccc(F)cc1F [I-1, (2R,3R)-2-(2,4-difluorophenyl)-3-(4-pyridin-2-ylpiperidin-1-yl)-1-(1,2,4-triazol-1-yl)butan-2-ol]	0.3 µg/mL (≈ 0.726 µM)	10 µg/mL (≈ 24.2 µM)	0.1 µg/mL (≈ 0.242 µM)	0.3 µg/mL (≈ 0.726 µM)		
C[C@@H](N1CC=C(c2ccc(Cl)cn2)CC1)[C@](O)(Cn1cncn1)c1ccc(F)cc1F [I-6, (2R,3R)-3-(5-chloro-3′,6′-dihydro-2,4′-bipyridin-1′(2′H)-yl)-2-(2,4-difluorophenyl)-1-(1,2,4-triazol-1-yl)butan-2-ol]	0.1 µg/mL (≈ 0.224 µM)	1 µg/mL (≈ 2.24 µM)	0.03 µg/mL (≈ 0.0673 µM)	0.003 µg/mL (≈ 0.00673 µM)		
C[C@@H](N1CC=C(c2ccccn2)CC1)[C@](O)(Cn1cncn1)c1ccc(F)cc1F [I-3, (2R,3R)-2-(2,4-difluorophenyl)-3-(3′,6′-dihydro-2,4′-bipyridin-1′(2′H)-yl)-1-(1,2,4-triazol-1-yl)butan-2-ol]	0.1 µg/mL (≈ 0.243 µM)	1 µg/mL (≈ 2.43 µM)	0.3 µg/mL (≈ 0.729 µM)	0.003 µg/mL (≈ 0.00729 µM)	1 µg/mL (≈ 2.43 µM)	0.3 µg/mL (≈ 0.729 µM)
